Laboratory results published in ChEMBL document CHEMBL1201862, “PubChem BioAssay data set” (2004).
The source made the active and inactive calls.

Experiments:
[1] = molecular target: T1, Heat shock factor protein 1 (Mus musculus, UniProt P38532); test: HSF1 potentiators in luciferase reporter cells, confirmation, cell-based, NIH3T3, luminescence, dose retest (AID 435004); assay type: functional;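 also: stress induced by proteasome inhibitor MG132 added 30 min after compound; luciferase reporter driven by HSF1 response element in NIH3T3 cells; actives raise luminescence as potentiators of the MG132 stress response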
T1 sequence (P38532 whole entry): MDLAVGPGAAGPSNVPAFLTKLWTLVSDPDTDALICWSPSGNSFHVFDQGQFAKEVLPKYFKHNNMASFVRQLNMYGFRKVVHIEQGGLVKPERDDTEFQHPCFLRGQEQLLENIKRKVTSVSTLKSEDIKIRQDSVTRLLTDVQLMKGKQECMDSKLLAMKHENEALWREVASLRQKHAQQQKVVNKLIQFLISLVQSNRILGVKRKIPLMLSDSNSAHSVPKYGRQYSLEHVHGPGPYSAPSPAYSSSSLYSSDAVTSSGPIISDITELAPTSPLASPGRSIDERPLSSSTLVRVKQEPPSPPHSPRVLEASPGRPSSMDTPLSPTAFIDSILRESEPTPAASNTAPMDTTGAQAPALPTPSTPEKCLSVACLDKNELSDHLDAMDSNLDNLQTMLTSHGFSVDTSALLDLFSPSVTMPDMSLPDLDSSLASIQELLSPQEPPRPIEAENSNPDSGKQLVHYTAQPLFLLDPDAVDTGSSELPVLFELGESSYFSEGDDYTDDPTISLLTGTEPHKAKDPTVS

[2] = molecular target: T1, Heat shock factor protein 1; test: inhibition of MG132-induced HSE-luciferase signal, confirmation, cell-based, NIH3T3, luminescence, dose retest (AID 2382); assay type: functional;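 also: NIH3T3 fibroblasts with HSF1-driven luciferase reporter stressed by proteasome inhibitor MG132; luminescence from HSF1-driven luciferase expression after 8 hours of MG132 stress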
[3] = molecular target: T2, Zinc finger protein mex-5 (Caenorhabditis elegans, UniProt Q9XUB2); test: MEX-5/TCR-2 RNA interaction inhibitors, dose response, biochemical, C. elegans, fluorescence polarization (AID 1960)
T2 sequence (Q9XUB2 whole entry): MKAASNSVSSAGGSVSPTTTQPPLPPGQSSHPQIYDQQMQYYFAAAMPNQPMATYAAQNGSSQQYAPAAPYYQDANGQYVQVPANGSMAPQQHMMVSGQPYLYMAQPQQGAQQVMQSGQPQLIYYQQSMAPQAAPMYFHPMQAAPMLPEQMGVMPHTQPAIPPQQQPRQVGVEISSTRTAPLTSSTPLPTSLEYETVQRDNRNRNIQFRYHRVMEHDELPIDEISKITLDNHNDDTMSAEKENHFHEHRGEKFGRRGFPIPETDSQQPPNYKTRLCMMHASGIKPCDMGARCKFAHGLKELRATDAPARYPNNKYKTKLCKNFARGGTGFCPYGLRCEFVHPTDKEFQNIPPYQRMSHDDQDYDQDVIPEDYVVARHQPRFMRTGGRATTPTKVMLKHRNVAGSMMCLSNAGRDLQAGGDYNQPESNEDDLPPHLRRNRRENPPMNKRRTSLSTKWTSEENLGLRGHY

[4] = microbe, parasite or virus in culture; assay type: functional; conditions: Mycobacterium tuberculosis
cells = assay type: functional
[5] = molecular target: Luciferin 4-monooxygenase (Photinus pyralis, UniProt P08659); test: firefly luciferase enzyme inhibitors, dose response, biochemical, luminescence (AID 1891)
Sequence of Luciferin 4-monooxygenase (P08659 whole entry): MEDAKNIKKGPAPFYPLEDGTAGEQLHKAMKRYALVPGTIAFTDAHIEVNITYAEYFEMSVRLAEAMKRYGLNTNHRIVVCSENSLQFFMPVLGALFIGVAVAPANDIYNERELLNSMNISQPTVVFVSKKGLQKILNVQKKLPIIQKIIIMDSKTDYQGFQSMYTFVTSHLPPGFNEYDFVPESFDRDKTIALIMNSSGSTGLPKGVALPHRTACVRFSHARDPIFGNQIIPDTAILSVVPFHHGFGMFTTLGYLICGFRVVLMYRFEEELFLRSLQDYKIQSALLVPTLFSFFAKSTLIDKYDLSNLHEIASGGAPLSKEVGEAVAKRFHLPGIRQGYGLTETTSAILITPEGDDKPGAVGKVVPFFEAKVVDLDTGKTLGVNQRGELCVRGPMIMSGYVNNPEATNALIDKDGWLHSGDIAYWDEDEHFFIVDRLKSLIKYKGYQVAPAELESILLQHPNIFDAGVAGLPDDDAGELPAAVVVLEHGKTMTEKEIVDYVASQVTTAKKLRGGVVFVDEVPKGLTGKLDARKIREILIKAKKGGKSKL

[6] = Luminescence Cell-Based Dose Confirmation HTS to Identify Inhibitors of Platelet Dense Granule Release. [Related pubchem assays: 1663 (Primary HTS), 1678 (Summary of Project)]; assay type: functional
[7] = molecular target: T3, Calpain-2 catalytic subunit (Sus scrofa, UniProt P43367); test: pig calpain II inhibitor potency, dose response, biochemical, fluorogenic peptide substrate (AID 1420); assay type: functional
T3 sequence (P43367 whole entry): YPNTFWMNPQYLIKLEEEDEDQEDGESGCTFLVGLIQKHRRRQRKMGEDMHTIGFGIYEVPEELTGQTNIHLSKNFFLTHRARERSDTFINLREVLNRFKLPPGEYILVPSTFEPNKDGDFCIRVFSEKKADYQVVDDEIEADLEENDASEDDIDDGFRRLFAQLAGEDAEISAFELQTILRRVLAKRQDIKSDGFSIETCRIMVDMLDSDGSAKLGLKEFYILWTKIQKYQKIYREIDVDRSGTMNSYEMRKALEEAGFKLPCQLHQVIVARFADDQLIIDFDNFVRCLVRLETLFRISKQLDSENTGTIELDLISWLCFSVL

[8] = P. falciparum Dd2 growth inhibitors, dose response, SYBR Green, cherry-picked samples (AID 1159567); assay type: functional, cell-based
[9] = molecular target: T4, Polyadenylate-binding protein 1 (Homo sapiens, UniProt P11940); test: PABP1 MLLE–PAM2 interaction inhibitors, dose response, miRNA deadenylation inhibitor project, biochemical, fluorescence polarization, Cy5-PAM2 peptide, secondary (AID 602260); assay type: functional; conditions: read-out: IC50_Mean
T4 sequence (P11940 whole entry): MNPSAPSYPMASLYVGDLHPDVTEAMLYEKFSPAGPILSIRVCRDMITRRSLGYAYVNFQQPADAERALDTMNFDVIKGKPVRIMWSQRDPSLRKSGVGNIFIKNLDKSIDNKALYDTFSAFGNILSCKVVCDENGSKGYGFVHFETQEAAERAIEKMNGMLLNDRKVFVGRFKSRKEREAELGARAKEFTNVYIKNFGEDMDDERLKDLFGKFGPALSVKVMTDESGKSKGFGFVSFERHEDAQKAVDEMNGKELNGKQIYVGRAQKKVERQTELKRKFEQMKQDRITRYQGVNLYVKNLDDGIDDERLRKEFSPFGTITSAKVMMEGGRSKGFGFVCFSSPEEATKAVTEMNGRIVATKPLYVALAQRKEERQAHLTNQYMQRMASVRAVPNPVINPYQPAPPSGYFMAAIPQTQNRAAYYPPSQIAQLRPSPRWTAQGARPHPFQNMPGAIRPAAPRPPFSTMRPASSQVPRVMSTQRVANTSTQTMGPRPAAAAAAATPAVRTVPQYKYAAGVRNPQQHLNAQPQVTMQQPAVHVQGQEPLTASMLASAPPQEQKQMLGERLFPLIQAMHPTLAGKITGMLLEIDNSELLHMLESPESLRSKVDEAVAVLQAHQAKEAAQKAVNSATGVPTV

[10] = molecular target: T4, Polyadenylate-binding protein 1; test: PABP1 MLLE–PAM2 binding inhibitor potency, dose response, biochemical, fluorescence polarization, FITC-PAM2 peptide (AID 602259); assay type: functional; conditions: read-out: IC50_Mean

In the case of `Cc1ccc(CN(C)C(=O)C2CCC(=O)N(CCc3ccccc3)C2)o1` (centres undefined), the EC50 [1] is reported as > 260 µM (inactive).

For `COc1ccc(Cn2nnnc2C(c2ccccc2Cl)N2CCC(C(N)=O)CC2)cc1` (centres undefined), the EC50 [2] was > 195 µM (not active).

For `C=CCn1c(=O)/c(=C/c2ccc(C)o2)s/c1=C(/C#N)C(=O)c1ccccc1`, the EC50 [3] was > 300 µM (inconclusive).

For `CCOc1ccc(CN(C)CC(O)COC(c2ccc(OC)cc2)c2ccc(OC)cc2)cc1` (centres undefined), the CC50 [4] was 26.6 µM (active) and the EC50 [1] was > 260 µM (inactive).

For `COc1ccc(NC(=O)NNC(=O)c2cc3occc3n2C)c(OC)c1`, the EC50 [1] was > 260 µM (inactive).

In the case of `Cc1ccc(CCC(=O)Nc2ccc(C)c(C)c2)o1`, the IC50 (cells) is reported as 49.8 µM (active).

In the case of `CC1=C(C(=O)Nc2ccccc2C)C(c2cccs2)NC(S)=N1` (centres undefined), the EC50 [2] is reported as > 195 µM (not active).

With `Cc1ccccc1-n1c(=O)cc(N2CCc3ccccc32)[nH]c1=O` the EC50 [2] was > 195 µM (not active).

For `COC(=O)c1sccc1NC(=O)Nc1cccc(F)c1`, the EC50 [5] was 0.93 µM (active), the EC50 [6] was 4.6 µM (active) and the EC50 [1] was 237 µM (active).

In the case of `CCN1C(NCCc2cccs2)=N[C@@H](c2cccs2)C(C(=O)OC)=C1C`, the EC50 [2] is reported as > 195 µM (not active).

In the case of `O=C(c1ccc(COc2ccc(Cl)cc2)cc1)N1CCCCC1`, the IC50 [7] is reported as 10.4 µM (not active).

In the case of `COc1ccc2c3c(n(C)c2c1)[C@H](CO)N(C(=O)c1cccc(F)c1)CC31CN(C(=O)c2cccc(F)c2)C1`, the AC50 [8] is reported as 9.32 µM (active).

With `N#Cc1ccc(-c2ccc([C@@H]3[C@@H]4CN(Cc5cocn5)C[C@H]3N4)cc2)cc1` the AC50 [8] was 3.73 µM (active).

With `CCOc1ccccc1NC(=O)CCS(=O)(=O)c1cccs1` the EC50 [2] was > 195 µM (not active).

For `CN(Cc1ccc2c(c1)CCCN2C)C(=O)[C@H]1O[C@@H](n2ccc(=O)[nH]c2=O)[C@H](O)[C@@H]1O`, the IC50 [9] was > 66 µM (inactive) and the IC50 [10] was > 66 µM (inactive).
